Converted amounts (≈) assume the structure as drawn. Numbered stars: 1 amine (or outer) side, 2 acyl side, 3 side chain; on linkers, the order of the positions; unused ones are H or OH. Square brackets hold non-standard residues; d marks the D form. Peptide text beside a SMILES is read from it. ξ: configuration not given here. Bip = N[C@@H](Cc1ccc(-c2ccccc2)cc1)C(=O)O; Dip = N[C@H](C(=O)O)C(c1ccccc1)c1ccccc1; NH(CH2)9CO = O=C(CCCCCCCCCN[*:1])[*:2]; 2Nal = N[C@@H](Cc1ccc2ccccc2c1)C(=O)O; Cha = N[C@@H](CC1CCCCC1)C(=O)O; ξAoc(2) = CCCCCCC(N)C(=O)O; Aoc = NCCCCCCCC(=O)O; Ahx = NCCCCCC(=O)O; GABA = NCCCC(=O)O
How the values were obtained:
[1] = Toxicity in human erythrocytes assessed as hemolysis at 150 uM after 1 hr; type: cell-based, Erythrocyte; conditions: read-out: Activity
Klebsiella pneumoniae = assay: Antimicrobial activity against multidrug-resistant Klebsiella pneumoniae ATCC 700603 by tube dilution method; type: functional
Escherichia coli = assay: Antimicrobial activity against Escherichia coli ATCC 25922 by tube dilution method; type: functional
Acinetobacter baumannii = assay: Antimicrobial activity against multidrug-resistant Acinetobacter baumannii ATCC BAA-1605 by tube dilution method; type: functional
Candida albicans = assay: Antifungal activity against Candida albicans ATCC 200955 by tube dilution method; type: functional
Enterococcus faecium = assay: Antimicrobial activity against vancomycin-resistant Enterococcus faecium ATCC 700221 by tube dilution method; type: functional
Pseudomonas aeruginosa = assay: Antimicrobial activity against Pseudomonas aeruginosa ATCC 27853 by tube dilution method; type: functional
Staphylococcus aureus = assay: Antimicrobial activity against methicillin-resistant Staphylococcus aureus ATCC 33591 by tube dilution method; type: functional
[2] = Toxicity in human erythrocytes assessed as hemolysis after 1 hr; type: cell-based, Erythrocyte

SMILES | hemolysis at 1 h, 150 µM [1] [%] | MIC (Klebsiella pneumoniae) [µM] | MIC (Escherichia coli) [µM] | MIC (Acinetobacter baumannii) [µM] | MIC (Candida albicans) [µM] | MIC (Enterococcus faecium) [µM] | MIC (Pseudomonas aeruginosa) [µM] | MIC (Staphylococcus aureus) [µM] | EC50 at 1 hr [2] [µM]
CCCCCCC1NC(=O)CNC(=O)[C@H](Cc2ccc3ccccc3c2)NC(=O)[C@H](CCCNC(=N)N)NC(=O)[C@H](CC(C)C)NC(=O)[C@H](Cc2ccc3ccccc3c2)NC(=O)[C@H](CCCNC(=N)N)NC1=O (stereo not given in full) (cyclo([2Nal]G[ξAoc(2)]R[2Nal]LR)) | 100 | 64 (≈ 65.2 µg/mL) | 32 (≈ 32.6 µg/mL) | 128 (≈ 130 µg/mL) | 64 (≈ 65.2 µg/mL) | 32 (≈ 32.6 µg/mL) | 128 (≈ 130 µg/mL) | 32 (≈ 32.6 µg/mL) | 55
CC(C)C[C@@H]1NC(=O)CNC(=O)[C@H](Cc2ccc(O)cc2)NC(=O)[C@H](CCCNC(=N)N)NC(=O)[C@H](CC(C)C)NC(=O)[C@H](Cc2ccc3ccccc3c2)NC(=O)[C@H](CCCNC(=N)N)NC1=O (cyclo([2Nal]LRYGLR)) | 19 | > 128 | > 128 | > 128 | > 128 | 64 (≈ 61.2 µg/mL) | > 128 | 128 (≈ 122 µg/mL) | > 150
CC(C)C[C@@H]1NC(=O)CCCCCCCCCNC(=O)[C@H](Cc2ccc3ccccc3c2)NC(=O)[C@H](CCCNC(=N)N)NC(=O)[C@H](CC(C)C)NC(=O)[C@H](Cc2ccc3ccccc3c2)NC(=O)[C@H](CCCNC(=N)N)NC1=O (cyclo([2Nal]LR[2Nal][NH(CH2)9CO]LR)) | 100 | > 64 | 64 (≈ 70.6 µg/mL) | 16 (≈ 17.6 µg/mL) | 16 (≈ 17.6 µg/mL) | 4 (≈ 4.41 µg/mL) | > 64 | 4 (≈ 4.41 µg/mL) | 15
CC(C)C[C@@H]1NC(=O)CCCCCNC(=O)[C@H](Cc2ccc3ccccc3c2)NC(=O)[C@H](CCCNC(=N)N)NC(=O)[C@H](CC(C)C)NC(=O)[C@H](Cc2ccc3ccccc3c2)NC(=O)[C@H](CCCNC(=N)N)NC1=O (cyclo([2Nal][Ahx]LR[2Nal]LR)) | 75 | 128 (≈ 134 µg/mL) | 32 (≈ 33.5 µg/mL) | 64 (≈ 67 µg/mL) | 16 (≈ 16.7 µg/mL) | 4 (≈ 4.19 µg/mL) | 64 (≈ 67 µg/mL) | 8 (≈ 8.37 µg/mL) | 115
CC(C)C[C@@H]1NC(=O)CCCCCCCNC(=O)[C@H](Cc2ccc3ccccc3c2)NC(=O)[C@H](CCCNC(=N)N)NC(=O)[C@H](CC(C)C)NC(=O)[C@H](Cc2ccc3ccccc3c2)NC(=O)[C@H](CCCNC(=N)N)NC1=O (cyclo([2Nal][Aoc]LR[2Nal]LR)) | 100 | 16 (≈ 17.2 µg/mL) | 16 (≈ 17.2 µg/mL) | 8 (≈ 8.6 µg/mL) | 4 (≈ 4.3 µg/mL) | 2 (≈ 2.15 µg/mL) | 32 (≈ 34.4 µg/mL) | 2 (≈ 2.15 µg/mL) | 22
CC[C@H](C)[C@@H]1NC(=O)[C@H](Cc2ccc3ccccc3c2)NC(=O)[C@H](CCCNC(=N)N)NC(=O)[C@H]([C@@H](C)O)NC(=O)CCCCCCCNC(=O)[C@H](Cc2ccc3ccccc3c2)NC(=O)[C@H](CCCNC(=N)N)NC1=O (cyclo([2Nal][Aoc]TR[2Nal]IR)) | 10 | > 128 | 128 (≈ 136 µg/mL) | 128 (≈ 136 µg/mL) | 64 (≈ 68 µg/mL) | 16 (≈ 17 µg/mL) | > 128 | 32 (≈ 34 µg/mL) | > 150
CC(C)C[C@@H]1NC(=O)CNC(=O)[C@H](Cc2ccc3ccccc3c2)NC(=O)[C@H](CCCNC(=N)N)NC(=O)[C@H](CC2CCCCC2)NC(=O)[C@H](Cc2ccc3ccccc3c2)NC(=O)[C@H](CCCNC(=N)N)NC1=O (cyclo([2Nal][Cha]R[2Nal]GLR)) | 96 | 64 (≈ 65.9 µg/mL) | 16 (≈ 16.5 µg/mL) | 64 (≈ 65.9 µg/mL) | 16 (≈ 16.5 µg/mL) | 16 (≈ 16.5 µg/mL) | 128 (≈ 132 µg/mL) | 8 (≈ 8.24 µg/mL) | 60
CC(C)C[C@@H]1NC(=O)CCCNC(=O)[C@H](Cc2ccc3ccccc3c2)NC(=O)[C@H](CCCNC(=N)N)NC(=O)[C@H](CC(C)C)NC(=O)[C@H](Cc2ccc3ccccc3c2)NC(=O)[C@H](CCCNC(=N)N)NC1=O (cyclo([2Nal][GABA]LR[2Nal]LR)) | 22 | 128 (≈ 130 µg/mL) | 64 (≈ 65.2 µg/mL) | 128 (≈ 130 µg/mL) | 16 (≈ 16.3 µg/mL) | 8 (≈ 8.15 µg/mL) | 128 (≈ 130 µg/mL) | 16 (≈ 16.3 µg/mL) | 230
CC(C)C[C@@H]1NC(=O)CNC(=O)[C@H](Cc2ccc(-c3ccccc3)cc2)NC(=O)[C@H](CCCNC(=N)N)NC(=O)[C@H](CC(C)C)NC(=O)[C@H](Cc2ccc(-c3ccccc3)cc2)NC(=O)[C@H](CCCNC(=N)N)NC1=O (cyclo([Bip]GLR[Bip]LR)) | 96 | 32 (≈ 33.4 µg/mL) | 16 (≈ 16.7 µg/mL) | 32 (≈ 33.4 µg/mL) | 16 (≈ 16.7 µg/mL) | 8 (≈ 8.34 µg/mL) | 64 (≈ 66.7 µg/mL) | 8 (≈ 8.34 µg/mL) | 16
CC(C)C[C@@H]1NC(=O)CNC(=O)[C@H](C(c2ccccc2)c2ccccc2)NC(=O)[C@H](CCCNC(=N)N)NC(=O)[C@H](CC(C)C)NC(=O)[C@H](C(c2ccccc2)c2ccccc2)NC(=O)[C@H](CCCNC(=N)N)NC1=O (cyclo([Dip]GLR[Dip]LR)) | 54 | 128 (≈ 133 µg/mL) | 64 (≈ 66.7 µg/mL) | 64 (≈ 66.7 µg/mL) | 64 (≈ 66.7 µg/mL) | 16 (≈ 16.7 µg/mL) | > 128 | 16 (≈ 16.7 µg/mL) | 145

Source: ChEMBL document CHEMBL4000149, “The effect of glycine replacement with flexible ω-amino acids on the antimicrobial and haemolytic activity of an amphipathic cyclic heptapeptide” (Eur J Med Chem, 2015)
